Experimental data as given in PubChem BioAssay (NCI).
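Values below derive from 48-hour exposures of cells grown in 96-well plates, with endpoints linearly interpolated between the two concentrations bracketing the appropriate inhibition level. The concentration for 50% growth inhibition is given as GI50. TGI: total growth inhibition.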

Tests used:
Assay in all cases: NCI-60 cell line screen, 48 h
CCRF-CEM leukemia = test system: CCRF-CEM leukemia
HCC-2998 colon = test system: HCC-2998 colon
HT29 colon = test system: HT29 colon
A549 NSCLC = test system: A549 NSCLC
SK-MEL-2 melanoma = test system: SK-MEL-2 melanoma
HL-60(TB) leukemia = test system: HL-60(TB) leukemia
HCT-116 colon = test system: HCT-116 colon
BT-549 breast = test system: BT-549 breast
UO-31 renal = test system: UO-31 renal
EKVX NSCLC = test system: EKVX NSCLC
KM12 colon = test system: KM12 colon
RPMI-8226 leukemia = test system: RPMI-8226 leukemia
NCI/ADR-RES ovarian = test system: NCI/ADR-RES ovarian
PC-3 prostate = test system: PC-3 prostate
HOP-62 NSCLC = test system: HOP-62 NSCLC
MDA-MB-231 breast = test system: MDA-MB-231 breast
MDA-MB-435 = test system: MDA-MB-435
RXF 393 renal = test system: RXF 393 renal
SF-268 CNS = test system: SF-268 CNS
HS 578T breast = test system: HS 578T breast
NCI-H23 lung = test system: NCI-H23 lung
HCT-15 colon = test system: HCT-15 colon
IGROV1 ovarian = test system: IGROV1 ovarian
CAKI-1 renal = test system: CAKI-1 renal
A498 renal = test system: A498 renal
NCI-H460 lung = test system: NCI-H460 lung
SK-MEL-5 melanoma = test system: SK-MEL-5 melanoma
NCI-H226 lung = test system: NCI-H226 lung
SW-620 colon = test system: SW-620 colon
HOP-92 NSCLC = test system: HOP-92 NSCLC
SF-295 CNS = test system: SF-295 CNS
UACC-62 melanoma = test system: UACC-62 melanoma
DU-145 prostate = test system: DU-145 prostate
T-47D breast = test system: T-47D breast
TK-10 renal = test system: TK-10 renal
UACC-257 melanoma = test system: UACC-257 melanoma
SF-539 CNS = test system: SF-539 CNS
ACHN renal = test system: ACHN renal
SNB-19 CNS = test system: SNB-19 CNS
M14 melanoma = test system: M14 melanoma
786-0 renal = test system: 786-0 renal
SK-MEL-28 melanoma = test system: SK-MEL-28 melanoma
U251 CNS = test system: U251 CNS
MCF7 breast = test system: MCF7 breast
NCI-H522 lung = test system: NCI-H522 lung
LOX IMVI melanoma = test system: LOX IMVI melanoma
SR leukemia = test system: SR leukemia
OVCAR-4 ovarian = test system: OVCAR-4 ovarian
K-562 leukemia = test system: K-562 leukemia
OVCAR-5 ovarian = test system: OVCAR-5 ovarian
SK-OV-3 ovarian = test system: SK-OV-3 ovarian
MOLT-4 leukemia = test system: MOLT-4 leukemia
MALME-3M melanoma = test system: MALME-3M melanoma
SNB-75 CNS = test system: SNB-75 CNS
SN12C renal = test system: SN12C renal
OVCAR-8 ovarian = test system: OVCAR-8 ovarian
COLO 205 colon = test system: COLO 205 colon

## Oc1cccc2ccc(-c3nnc(SCc4ccc(O)c5ncccc45)o3)nc12
CCRF-CEM leukemia
  GI50: 329 nM
  TGI: > 100000 nM
HCC-2998 colon
  GI50: 643 nM
  TGI: > 100000 nM
HT29 colon
  GI50: 4910 nM
  TGI: > 100000 nM
A549 NSCLC
  GI50: 204 nM
  TGI: > 100000 nM
SK-MEL-2 melanoma
  GI50: 513 nM
  TGI: 2700 nM
HL-60(TB) leukemia
  GI50: 583 nM
  TGI: > 100000 nM
HCT-116 colon
  GI50: 71 nM
  TGI: > 100000 nM
BT-549 breast
  GI50: 110 nM
  TGI: > 20700 nM
UO-31 renal
  GI50: 299 nM
  TGI: 7240 nM
EKVX NSCLC
  GI50: 807 nM
  TGI: > 100000 nM
KM12 colon
  GI50: 432 nM
  TGI: > 100000 nM
RPMI-8226 leukemia
  GI50: 266 nM
  TGI: > 100000 nM
NCI/ADR-RES ovarian
  GI50: 696 nM
  TGI: > 100000 nM
PC-3 prostate
  GI50: 175 nM
  TGI: > 100000 nM
HOP-62 NSCLC
  GI50: 369 nM
  TGI: > 40200 nM
MDA-MB-231 breast
  GI50: 1650 nM
  TGI: > 100000 nM
MDA-MB-435
  GI50: 294 nM
  TGI: > 100000 nM
RXF 393 renal
  GI50: 350 nM
  TGI: > 24500 nM
SF-268 CNS
  GI50: 226 nM
  TGI: > 100000 nM
HS 578T breast
  GI50: 181 nM
NCI-H23 lung
  GI50: 268 nM
  TGI: > 100000 nM
HCT-15 colon
  GI50: 158 nM
  TGI: > 100000 nM
IGROV1 ovarian
  GI50: 457 nM
  TGI: > 100000 nM
CAKI-1 renal
  GI50: 428 nM
  TGI: > 100000 nM
A498 renal
  GI50: 1200 nM
  TGI: 7320 nM
NCI-H460 lung
  GI50: 39.3 nM
  TGI: 11400 nM
SK-MEL-5 melanoma
  GI50: 326 nM
  TGI: 1550 nM
NCI-H226 lung
  GI50: 2410 nM
  TGI: > 100000 nM
SW-620 colon
  GI50: 452 nM
  TGI: > 100000 nM
HOP-92 NSCLC
  GI50: 173 nM
  TGI: 707 nM
SF-295 CNS
  GI50: 315 nM
  TGI: > 25700 nM
UACC-62 melanoma
  GI50: 467 nM
  TGI: 19700 nM
DU-145 prostate
  GI50: 117 nM
  TGI: > 100000 nM
T-47D breast
  GI50: 428 nM
  TGI: > 100000 nM
TK-10 renal
  GI50: 1990 nM
  TGI: > 27100 nM
UACC-257 melanoma
  GI50: 413 nM
  TGI: 4510 nM
SF-539 CNS
  GI50: 275 nM
  TGI: > 100000 nM
ACHN renal
  GI50: 419 nM
  TGI: > 100000 nM
SNB-19 CNS
  GI50: 273 nM
  TGI: > 100000 nM
M14 melanoma
  GI50: 332 nM
  TGI: 79500 nM
786-0 renal
  GI50: 627 nM
  TGI: > 100000 nM
SK-MEL-28 melanoma
  GI50: 492 nM
  TGI: > 100000 nM
U251 CNS
  GI50: 103 nM
  TGI: > 100000 nM
MCF7 breast
  GI50: 367 nM
  TGI: > 32400 nM
NCI-H522 lung
  GI50: 440 nM
  TGI: 5540 nM
LOX IMVI melanoma
  GI50: 120 nM
  TGI: > 100000 nM
SR leukemia
  GI50: 338 nM
  TGI: > 100000 nM
OVCAR-4 ovarian
  GI50: 2000 nM
  TGI: > 100000 nM
K-562 leukemia
  GI50: 147 nM
  TGI: > 100000 nM
OVCAR-5 ovarian
  GI50: 2170 nM
  TGI: > 100000 nM
SK-OV-3 ovarian
  GI50: 761 nM
  TGI: 5280 nM
MOLT-4 leukemia
  GI50: 457 nM
  TGI: > 100000 nM
MALME-3M melanoma
  GI50: 365 nM
  TGI: 3810 nM
SNB-75 CNS
  GI50: 177 nM
  TGI: > 22600 nM
SN12C renal
  GI50: 280 nM
  TGI: > 100000 nM
OVCAR-8 ovarian
  GI50: 302 nM
  TGI: > 100000 nM
COLO 205 colon
  GI50: 1730 nM
  TGI: 4960 nM
